Results reported in patent US20240067603A1, “CUBANYL BIGUANIDE COMPOUNDS” (REGENTS OF THE UNIVERSITY OF MINNESOTA, priority 2020, published 2024).
Where two headings read alike, the source gives them in different places.

Key:
[1] = test system: LR/FR MCF7A1C cells; test: Crystal violet cell proliferation assay, LR,FR-MCF7AC1; format: cell-based, human; conditions: for IC50: Homo sapiens, read-out: IC50, LR/FR MCF7A1C cells
Protocol: Derivation process of LR-FR- and LR-FR-PR resistant MCF7AC1 cells. The letrozole-resistant MCF7AC1 cell line (LR-MCF7AC1) was generated in vivo from the aromatase-expressing MCF7A C1 tumor-bearing athymic female nude mice that received letrozole therapy (10 μg/day, five days a week) over a period of 27 weeks. To facilitate tumor growth mice also received the estrogen precursor androstenedione (100 μg/day, five days a week), which is intratumorally converted by aromatase into estradiol (Yue W, et al. Cancer Res. 1994; 54(19):5092-5). With the emergence of the letrozole resistant tumors, these tumors were harvested from in vivo and the LR-MCF7AC1 cell line was established in vitro (Jayaraman S., et al. Breast Cancer Res. 2020; 22(1):51), where the cells grew in phenol-red free IMEM+10% FBS media containing antibiotics.
In a second in vivo study, the LR-MCF7AC1 tumor-bearing athymic female nude mice were randomized to multiple endocrine therapies including fulvestrant therapy (1000 μg/day, five days a week). One mouse harboring the LR-MCF7AC1 tumor began to develop resistance to fulvestrant therapy at 31 weeks of treatment. This fulvestrant-resistant LR-MCF7AC1 tumor was harvested from mice and reimplanted into mice for two successive generations. The 2nd generation tumor was harvested from in vivo and the LR,FR-MCF7AC1 cell line was established in vitro, where the cells grew in phenol-red free IMEM+10% FBS media containing antibiotics.
Cell proliferation assay: The cells mentioned in this study were seeded in 96 wells-plates (2000-4000 cells/well) and treated 24 hours later with DMSO (vehicle control), HCB or HBB drugs at the indicated concentrations. 72 hours later, the cells were fixed in situ with 25% (v/v) glutaraldehyde, followed by staining with 0.52% crystal violet (CV) in 25% methanol (Fisher Chemical). The CV stained plates were solubilized in 100 mM sodium citrate in 50% ethanol solution and absorbance of the stain measured at 550 nm using a plate reader. Each data point represents mean±SD, obtained from six wells per treatment performed in biological triplicates. […]

[2] = test system: BT474; test: Inhibition of mammary carcinoma cell line BT474; format: cell-based; conditions: BT-474; Table 5; BT474, human, ERα+, HER2+
Protocol: (§1) 3-(4,5-Dimethylthiazol-2-yl)-2,5-diphenyltetrazolium Bromide (MTT) Cell Proliferation Assay. To cells grown in 96-well-tissue culture plate, 20 μl/well of MTT solution (5 mg/ml in PBS) was added. After 1-2 hours incubation at 37° C., the plate was centrifuged. Supernatant was discarded and 100 μl DMSO was added to dissolve water insoluble formazan, and the absorbance was read at 540 nm with a plate reader.

[3] = Microsomal stability, human liver microsomes; format: in vitro ADME; conditions: for parent metabolite peak area after 60 min: 10 μM, human liver microsomes 1 mg/mL, NADPH 2 mM, 37° C.; for degradation pathways: human or mouse liver microsomes
Protocol: Microsomal stability of HBB and HCB were evaluated in human and mouse liver microsomes. 10 μM of HBB or HCB was tested in a biological matrix comprising of human or mouse liver microsomes (1 mg/mL) (Table 6). NADPH (2mM) was added as a cofactor. Total volume was 200 μL.
HBB or HCB was incubated for 0, 30, or 60 min at 37° C. Incubations were quenched with 2 volumes of acetonitrile followed by centrifugation for 10 min at 16,000 g.

[4] = test system: MDA-MB-231; test: Inhibition of mammary carcinoma cell line MDA-MB-231; format: cell-based; conditions: Table 5; MDA-MB-231, human, Basal, HER2−
Protocol: as §1

[5] = test system: MCF-7 cells; test: MTT cell proliferation assay, MCF-7; format: cell-based, human; conditions: MCF7
Protocol: FIG. 8. Effects of HCB on the proliferation of MCF-7 cells. MCF-7 cells were seeded in 96 well plates and treated with drugs at varied concentration for 24 hours. MTT assay was performed to determine remaining viable cells in each well. Results are represented as mean±S.D. (n=7). IC50 was determined by curve fitting.
as §1

[6] = test system: mm006; test: Inhibition of mammary carcinoma cell line mm006; format: cell-based, mouse (C57BL/6); conditions: Mus musculus, read-out: IC50 (uM), mm006
Protocol: as §1

[7] = test system: Vero cells; test: Cytotoxicity assay in Vero cells
[8] = Table 5, MCF-7, human, ERα+, HER2−, read-out: IC50 (uM), MCF-7

| SMILES | IC50 ([1]; 72 h) | IC50 [2] | parent metabolite peak area after 60 min [3] | degradation pathways [3] | IC50 [4] | IC50 [5, 8] | IC50 [6] | CC10 [7] | IC50 ([1]; letrozole- and fulvestrant-resistant, 72 hours, crystal violet) | fold increase in sensitivity, HCB vs HBB ([1]; LR/FR and LR/FR/PR MCF7A1C cells) | IC50 ([5]; Homo sapiens, MTT, 24 hours treatment, curve fitting, read-out: IC50, proliferation of MCF-7 cells) | IC50 ([6]; Table 5, mm006, C57BL/6, Basal) |
| --- | --- | --- | --- | --- | --- | --- | --- | --- | --- | --- | --- | --- |
| CCCCCCNC(=N)NC(=N)NCc1ccccc1 [HBB, N1-hexyl-N5-benzyl-biguanide] | 3.9 µM | 23.2 µM | 19.19% | oxidation, dehydrogenation, and glucuronidation | 18.5 µM | 22.2 µM | 38.5 µM | 0.091 µM |  |  |  |  |
| CCCCCCNC(=N)NC(=N)NCC12C3C4C5C3C1C5C42 (stereo not drawn) [HCB, Hexyl Cubanomethyl Biguanide] |  | 10.9 µM | 48.18% | oxidation, dehydrogenation, and hydrogenation | 15.4 µM | 8.4 µM |  | 0.201 µM | 1.3 µM | ~3 fold | 8.4 ± 1.2 µM | 16.9 µM |
